# Key:
# Leukemia P388 cells = assay: In vivo treatment of leukemia P388 cells implanted ip in BDF1 mice; conditions: 25x2x5 mg/kg ip
# Description: 10^6 Leukemia P388 cells were implanted ip to BDF1 mice obtained from Southern Research Institute, Alabama. (−)-OddC was administered ip twice daily for five days starting one day after tumor cell implantation.
# FIG. 3 and Table 1 show the results of these studies.
# BDF1 mice = assay: Toxicity to BDF1 mice, ip twice daily for five days; type: in vivo; conditions: 75 mg/kg/dose ip twice daily for five days
# Colon 38 tumor cells = assay: In vivo treatment of Colon 38 tumor cells implanted sc in BDF1 mice; set-up: species or system mouse; conditions: 25 mg/kg/dose twice daily for five days
# Text: The graph plots tumor growth as a percentage of original tumor weight vs. days. Treatment of the mice occurred in days 1, 2, 3, 4 and 5.
# Colon 38 tumor cells were implanted sc to BDF1 mice.
# CCRF-CEM = assay: NCI cancer screening program, SRB: CCRF-CEM; type: cell-based; conditions: Leukemia, log10 concentration at PG +50, 48 hours
# RL-60(TB) = assay: NCI cancer screening program, SRB: RL-60(TB); type: cell-based
# K-562 = assay: NCI cancer screening program, SRB: K-562; type: cell-based; conditions: Leukemia, PG +50, 48 hours
# BSOLT-4 = assay: NCI cancer screening program, SRB: BSOLT-4; type: cell-based; conditions: Leukemia, PG +50, 48 hours
# RPMI-2.26 = assay: NCI cancer screening program, SRB: RPMI-2.26; type: cell-based; conditions: Leukemia, PG +50, 48 hours
# SR = assay: NCI cancer screening program, SRB: SR; type: cell-based; conditions: Leukemia, PG +50, 48 hours
# HOP-62 = assay: NCI cancer screening program, SRB: HOP-62; type: cell-based; conditions: Non-Small Cell Lung Cancer, PG +50, 48 hours
# NCI-H23 = assay: NCI cancer screening program, SRB: NCI-H23; type: cell-based; conditions: Non-Small Cell Lung Cancer, PG +50, 48 hours
# NCI-H460 = assay: NCI cancer screening program, SRB: NCI-H460; type: cell-based; conditions: Non-Small Cell Lung Cancer, PG +50, 48 hours
# NCI-H522 = assay: NCI cancer screening program, SRB: NCI-H522; type: cell-based; conditions: Non-Small Cell Lung Cancer, PG +50, 48 hours
# COLO205 = assay: NCI cancer screening program, SRB: COLO205; type: cell-based; conditions: Colon Cancer
# HCT-116 = assay: NCI cancer screening program, SRB: HCT-116; type: cell-based; conditions: Colon Cancer, PG +50, 48 hours
# HCT-15 = assay: NCI cancer screening program, SRB: HCT-15; type: cell-based; conditions: Colon Cancer, PG +50, 48 hours
# HT29 = assay: NCI cancer screening program, SRB: HT29; type: cell-based; conditions: Colon Cancer, PG +50, 48 hours
# SNB-19 = assay: NCI cancer screening program, SRB: SNB-19; type: cell-based; conditions: CNS Cancer, PG +50, 48 hours
# U251 = assay: NCI cancer screening program, SRB: U251; type: cell-based; conditions: CNS Cancer, PG +50, 48 hours
# LOX D6VI = assay: NCI cancer screening program, SRB: LOX D6VI; type: cell-based; conditions: Melanoma
# MALME-3M = assay: NCI cancer screening program, SRB: MALME-3M; type: cell-based; conditions: Melanoma, PG +50, 48 hours
# SK-MEL-28 = assay: NCI cancer screening program, SRB: SK-MEL-28; type: cell-based; conditions: Melanoma, PG +50, 48 hours
# SK-MEL-5 = assay: NCI cancer screening program, SRB: SK-MEL-5; type: cell-based; conditions: Melanoma, PG +50, 48 hours
# UACC-257 = assay: NCI cancer screening program, SRB: UACC-257; type: cell-based; conditions: Melanoma, PG +50, 48 hours
# UACC-62 = assay: NCI cancer screening program, SRB: UACC-62; type: cell-based; conditions: Melanoma, PG +50, 48 hours
# OVCAR-3 = assay: NCI cancer screening program, SRB: OVCAR-3; type: cell-based; conditions: Ovarian Cancer
# OVCAR-4 = assay: NCI cancer screening program, SRB: OVCAR-4; type: cell-based; conditions: Ovarian Cancer, PG +50, 48 hours
# OVCAR-5 = assay: NCI cancer screening program, SRB: OVCAR-5; type: cell-based; conditions: Ovarian Cancer, PG +50, 48 hours
# OVCAR-8 = assay: NCI cancer screening program, SRB: OVCAR-8; type: cell-based; conditions: Ovarian Cancer
# SK-OV-3 = assay: NCI cancer screening program, SRB: SK-OV-3; type: cell-based; conditions: Ovarian Cancer
# ACHN = assay: NCI cancer screening program, SRB: ACHN; type: cell-based; conditions: Renal Cancer, PG +50, 48 hours
# CAKI-1 = assay: NCI cancer screening program, SRB: CAKI-1; type: cell-based; conditions: Renal Cancer, PG +50, 48 hours
# RXF-393 = assay: NCI cancer screening program, SRB: RXF-393; type: cell-based; conditions: Renal Cancer, PG +50, 48 hours
smiles,measurement,setting,value
"Nc1ccn([C@@H]2CO[C@H](CO)O2)c(=O)n1 [(−)-OddC, (−)-(2S,4S)-1-(2-hydroxymethyl-1,3-dioxolan-4-yl)cytosine]",Cures/Total (survivors equal or greater than 45 day life span),Leukemia P388 cells,one long term survivor
same,Mean Survival Time,"Leukemia P388 cells; twice a day on days 1 to 5, 10^6 P388 cells ip on day 0",27 days
same,Toxicity to the mice,BDF1 mice,toxic
same,Colon tumor cell growth,Colon 38 tumor cells,retarded
same,Log10GI50,CCRF-CEM,−6.64
same,Log10GI50,RL-60(TB),−6.28
same,Log10GI50,K-562,−4.59
same,Log10GI50,BSOLT-4,−6.66
same,Log10GI50,RPMI-2.26,−4.03
same,Log10GI50,SR,−5.95
same,Log10GI50,HOP-62,−6.23
same,Log10GI50,NCI-H23,−4.92
same,Log10GI50,NCI-H460,−4.32
same,Log10GI50,NCI-H522,−6.06
same,Log10TGI,"COLO205; PG 0, 48 hours",>−4.00
same,Log10GI50,"COLO205; PG +50, 48 hours",−4.03
same,Log10GI50,HCT-116,−5.23
same,Log10GI50,HCT-15,−5.39
same,Log10GI50,HT29,>−4.00
same,Log10GI50,SNB-19,−5.71
same,Log10GI50,U251,−4.91
same,Log10TGI,"LOX D6VI; PG 0, 48 hours",>−4.00
same,Log10GI50,"LOX D6VI; PG +50, 48 hours",−6.39
same,Log10GI50,MALME-3M,−4.51
same,Log10GI50,SK-MEL-28,−4.31
same,Log10GI50,SK-MEL-5,−4.91
same,LOG10GI50,UACC-257,>−4.00
same,LOG10GI50,UACC-62,−5.53
same,LOG10TGI,"OVCAR-3; PG 0, 48 hours",>−4.00
same,LOG10GI50,"OVCAR-3; PG +50, 48 hours",−4.44
same,LOG10GI50,OVCAR-4,>−4.00
same,LOG10GI50,OVCAR-5,−4.41
same,LOG10TGI,"OVCAR-8; PG 0, 48 hours",>−4.00
same,LOG10GI50,"OVCAR-8; PG +50, 48 hours",−5.82
same,LOG10TGI,"SK-OV-3; PG 0, 48 hours",>−4.00
same,LOG10GI50,"SK-OV-3; PG +50, 48 hours",−5.35
same,LOG10GI50,ACHN,−6.46
same,LOG10GI50,CAKI-1,−6.65
same,LOG10GI50,RXF-393,−6.17

# — patent publication US6436948B1, “Method for the treatment of psoriasis and genital warts” (priority 1995, dated 2002)
